Test results: PMC11048155, “Antiviral Drug Candidate Repositioning for Streptococcus suis Infection in Non-Tumorigenic Cell Models” (Biomedicines, 2024)
In brackets after ≈: the same amount, converted by molar mass. Entries after “also recorded” stand apart in the source; their conditions may differ.

Key:
[1] = system: Pseudomonas (P.) aeruginosa (ATCC 27853); assay: MIC measurement (broth microdilution); type: cell-based; conditions: source ATCC, 18–24 h at 37 °C
[2] = system: Escherichia (E.) coli (ATCC 11775); assay: MIC measurement (broth microdilution); type: cell-based; conditions: source ATCC, 18–24 h at 37 °C
[3] = system: Salmonella (S.) enterica (clinical isolate); assay: MIC measurement (broth microdilution); type: cell-based; conditions: source 204/22, 18–24 h at 37 °C
Excerpt: Bacterial strains used in this study were as follows: S. suis serotype 2 (ATCC 958242) Staphylococcus (S.) aureus (ATCC 10832), Escherichia (E.) coli (ATCC 11775), Pseudomonas (P.) aeruginosa (ATCC 27853), Pasteurella (P.) multocida (clinical isolate), Burkholderia (B.) cepacia (clinical isolate), Salmonella (S.) enterica (clinical isolate), and Enterococcus (E.) faecalis (clinical isolate). Of the clinical isolates used in this study, P. multocida is of porcine origin, B. cepacia is of human origin, and S. enterica and E. faecalis are of poultry origin. The bacterial strains were stored in the Microbiology Laboratory of the University of Veterinary Medicine, Budapest, at a temperature of −80 °C. Bacterial strains were inoculated the day before the test in 5 mL of Cation-Adjusted Mueller–Hinton Broth (CAMHB) and incubated for 18–24 h at 37 °C. The initial inoculum concentration used for the MIC assay was 5 × 10^5/mL. All wells except the first column of the working plates were filled with 90 µL CAMHB. A stock solution of inhibitors at 800 µM was then prepared, 180 µL of which was measured into the first column of plates and used to prepare a 2-based dilution on 96-well plates. After the 10th column, the tips were discarded with the 90 µL excess solution so that each column contained 90 µL of solution. Each bacterial strain was tested in a single row on the working plates. A bacterial suspension diluted to 25× was prepared on an auxiliary plate for bacterial inoculation by loading 240 µL of TSB per column of plates and adding 10–10 µL of bacterial strain suspension per well. In the next step, the isolated bacterial strains were inoculated onto the plates. Starting from column 11 (positive control) of the plates containing dilution row 2, 10 µL of bacterial suspension was added to each well, working backward. Column 11 served as a positive control (containing only bacterial suspension and broth), while column 12 served as a negative control (containing only broth). The microplates were then incubated at 37 °C for 18–24 h, and the MIC values were assessed in comparison to positive controls.

[4] = system: Pasteurella (P.) multocida (clinical isolate); assay: MIC measurement (broth microdilution); type: cell-based; conditions: source 380/22, 18–24 h at 37 °C
S. suis serotype 2 = assay: MIC measurement (broth microdilution); type: cell-based, Streptococcus suis; conditions: source 672/22, 18–24 h at 37 °C
[5] = system: Burkholderia (B.) cepacia (clinical isolate); assay: MIC measurement (broth microdilution); type: cell-based; conditions: B. cepacia, source 20-10299; 18–24 h at 37 °C; read-out: MIC
CYP2C19 = molecular target: T1, CYP2C19 (Homo sapiens, UniProt P33261); assay: CYP enzyme fluorometric activity measurement, human hepatic microsomes; type: in vitro ADME; conditions: inhibitor 50 µM, 15 min, p > 0.05
T1 construct: Human hepatic microsomal supernatants were prepared; tissue Gibco; host or cells: human liver microsomes
T1 sequence (P33261 whole entry): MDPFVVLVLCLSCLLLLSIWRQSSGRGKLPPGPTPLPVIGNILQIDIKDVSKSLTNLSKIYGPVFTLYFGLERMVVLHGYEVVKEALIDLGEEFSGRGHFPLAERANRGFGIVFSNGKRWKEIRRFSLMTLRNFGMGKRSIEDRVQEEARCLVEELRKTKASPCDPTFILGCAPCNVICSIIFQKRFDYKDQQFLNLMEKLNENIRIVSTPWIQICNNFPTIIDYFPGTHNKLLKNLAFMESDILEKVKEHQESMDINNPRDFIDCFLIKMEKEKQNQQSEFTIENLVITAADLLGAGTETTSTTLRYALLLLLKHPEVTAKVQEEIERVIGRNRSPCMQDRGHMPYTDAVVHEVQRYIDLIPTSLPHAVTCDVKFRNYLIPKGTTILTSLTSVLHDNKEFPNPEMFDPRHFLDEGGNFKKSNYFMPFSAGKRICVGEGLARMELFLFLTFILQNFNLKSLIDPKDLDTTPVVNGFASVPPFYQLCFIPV
Method: The Biovision CYP assays (BioVision, Inc., Kampenhout, Belgium) employ non-fluorescent CYP2D6, 2C9, 2C19, 1A2, or 3A4 substrates able to undergo transformation into highly fluorescent detectable metabolites. […] Human hepatic microsomal supernatants were prepared (Gibco, Biocentre, Szeged, Hungary protein concentration: 20 mg/mL) separately by mixing 30 µL with 2425 µL assay buffer and with 50 µL nicotinamide adenine dinucleotide phosphate (NADPH) generating system (100×). […] Control measurements were performed in the absence of the inhibitors.
In background controls, only assay buffer excluding microsomes and test compounds was used in a volume of 70 µL. Subsequently, after incubation at 37 °C for 15 min, 30 µL of the suitable CYP substrate/NADP+ mixture was incorporated into each well, resulting in a final reaction volume of 100 µL/well. The obtained microsomal protein content was assessed using the bicinchoninic acid protein assay kit (Pierce BCA kit, Thermo Fisher Scientific, Waltham, MA, USA). In each assay, the microsomal protein concentration was calibrated to 100 µg/well. The fluorescence intensities were measured with a fluorometer (Victor X2 2030, Perkin Elmer, Waltham, MA, USA) using λex/em = 406/468 nm for CYP1A2 and for CYP2C19, λex/em = 415/502 nm for CYP2C9, λex/em = 390/468 nm for CYP2D6, and λex/em = 535/587 nm for CYP3A4 assays.

IPEC-J2 cells [6] = assay: EC H2O2 production, Amplex red method; type: cell-based, porcine; conditions: 24 h
Method: For oxidative status measurements, inhibitors MI-432, MI-471, or MI-476 were used at 50 µM in the absence and presence of S. suis for 24 h in IPEC-J2 cells and in primary porcine hepatocytes on 24-well plates. An Amplex red hydrogen peroxide assay kit was used to monitor EC hydrogen peroxide (H₂O₂) production in IPEC-J2 cells and in hepatocytes. Following the manufacturer’s instructions, cell-free supernatants were collected and mixed with the Amplex red working solution (in a ratio of 1:1). A Victor X2 2030 fluorometer was used to detect fluorescence intensity at wavelengths 530 nm and 590 nm for excitation and emission, respectively.

IPEC-J2 cells [7] = assay: IL-6 production, porcine IL-6 ELISA; type: cell-based; conditions: IPEC-J2, S. suis 10^4 CFU/mL in combination with inhibitor, 24 h
Method: (§1) After 24 h incubation time, the cell-free supernatants from […], MI-471, and MI-476 exposure were sampled from IPEC-J2 cells and from porcine hepatocytes. The changes in cytokine levels were detected with porcine IL-6 ELISA kits. The manufacturer’s instructions were followed to treat the supernatants and measured by a SpectraMax iD3 microplate reader at 450 nm.

porcine hepatocytes = assay: IL-6 production, porcine IL-6 ELISA; type: cell-based; conditions: S. suis 10^4 CFU/mL in combination with inhibitor, 24 h
Method: as §1

[8] = IPEC-J2, S. suis 10^4 CFU/mL in combination with inhibitor 50 µM

N=C(N)c1cccc(C[C@H](NS(=O)(=O)c2cccc(-c3ccc(Cl)cc3Cl)c2)C(=O)N2CCC(CN)CC2)c1 [MI-476]
MIC [1]: > 800 µM | MIC [2]: > 800 µM | MIC [3]: > 800 µM | MIC [4]: 50 µM (≈ 29.4 µg/mL) | MIC (S. suis serotype 2; Streptococcus suis): 6 µM (≈ 3.53 µg/mL) | MIC (S. suis serotype 2): 6.25 µM (≈ 3.68 µg/mL) | MIC [5]: 400 µM (≈ 235 µg/mL) | CYP2C19 activity (CYP2C19): No significant inhibitory effects | EC H2O2 production (IPEC-J2 cells [6]; [8]): unchanged H₂O₂ production; also recorded: antioxidant properties | EC H2O2 production (IPEC-J2 cells [6]; IPEC-J2, inhibitor alone 50 µM): unchanged H₂O₂ production | IL-6 levels (IPEC-J2 cells [7]): significant anti-inflammatory effects | IL-6 levels (porcine hepatocytes): significant anti-inflammatory effects

N=C(N)c1cccc(C[C@H](NS(=O)(=O)c2cccc(-c3ccc(Cl)cc3Cl)c2)C(=O)N2CCC(N)CC2)c1 [MI-471]
MIC [1]: > 800 µM | MIC [2]: > 800 µM | MIC [3]: > 800 µM | MIC [4]: 50 µM (≈ 28.7 µg/mL) | MIC (S. suis serotype 2; Streptococcus suis): 3 µM (≈ 1.72 µg/mL) | MIC (S. suis serotype 2): 3.125 µM (≈ 1.8 µg/mL) | MIC [5]: 400 µM (≈ 230 µg/mL) | CYP2C19 activity (CYP2C19): No significant inhibitory effects | EC H2O2 production (IPEC-J2 cells [6]; [8]): significant increase; also recorded: significant elevation in H2O2 levels | EC H2O2 production (IPEC-J2 cells [6]; IPEC-J2, inhibitor alone 50 µM): unchanged H₂O₂ production | IL-6 levels (IPEC-J2 cells [7]): significant anti-inflammatory effects | IL-6 levels (porcine hepatocytes): significant anti-inflammatory effects
